Results reported in patent US12281225B2, “Process for preparing stable polymers containing vinylimidazole” (BASF SE, priority 2018, dated 2025).

Columns and labels:
[1] = Analysis of active substance: preservative concentration before and after storage in VI-containing polymer solution; type: physicochemical; details: for active-substance concentration, 0 d, RT: before storage; for active-substance concentration, 14 d, 40° C.: storage 14 d at 40° C.; for active-substance concentration, 28 d, 40° C.: storage 28 d at 40° C.; for active-substance concentration, 60 d 40° C.: storage 60 d at 40° C.
Outline: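 Preservatives (MIT, BIT, CMIT, OIT, DCOIT, iodopropynyl butyl carbamate) in aqueous vinylpyrrolidone–vinylimidazole copolymer solution quantified after dilution by isocratic RP18 chromatography with UV detection, using an acid-methanol eluent.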

[2] = system: Yeast: Candida albicans, Candida valida, Rhodotorula rura, Saccharomyces cerevisiae; assay: Preservation test with periodic inoculation, yeast assessment; type: cell-based; details: for Start sample measurement, yeast assess., 4th inoculation: freshly formulated; for 60 d 40° C., yeast assess., 4th inoculation: sample stored 60 d at 40° C.
Outline: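 Polymer samples (25 g) containing preservative were inoculated weekly, four times, with 10^9/ml bacterial or yeast mixtures (0.5 ml). Weekly streaks on agar were scored semiquantitatively (−− to ++) after 3 days at 25 °C, on fresh samples and on samples stored 60 days at 40 °C.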

[3] = Physical stability; visual assessment (color, turbidity, phase separation); type: physicochemical; design: key: ++: no discernible change with respect to color, turbidity or phase separation; +: marginal change in color number, somewhat increased Tyndall effect but no turbidity; 0: easily discernible increase in color number and moderate turbidity−no phase separation; −: turbidity and change in color number readily discernible by visual assessment; −−: strong color change with strong turbidity and incipient phase separation
Outline: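 Samples were inspected visually for color, turbidity and phase separation and scored on a five-step scale. Scores run from ++ (no discernible change) to −− (strong color change, strong turbidity, incipient phase separation).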

[4] = Iodine color number according to DIN 6162:2014-09; type: physicochemical
[5] = Polymer P5 (HP56) with stabilizer

With `CCCCCCCCn1sccc1=O` [OIT, octylisothiazolinone] the “active-substance concentration, 0 d, RT” value ([1]; in Polymer P1) was 250 ppm, the “active-substance concentration, 14 d, 40° C.” value ([1]; in Polymer P1) was 142 ppm and the “active-substance concentration, 28 d, 40° C.” value ([1]; in Polymer P1) was 89 ppm. For the same compound, the “active-substance concentration, 60 d 40° C.” value ([1]; in Polymer P1) was 72 ppm, the “active-substance concentration, 0 d, RT” value ([1]; in Polymer P2) was 250 ppm and the “active-substance concentration, 14 d, 40° C.” value ([1]; in Polymer P2) was 170 ppm. The “active-substance concentration, 28 d, 40° C.” value ([1]; in Polymer P2) was 101 ppm, the “active-substance concentration, 60 d 40° C.” value ([1]; in Polymer P2) was 84 ppm and the “active-substance concentration, 0 d, RT” value ([1]; in Polymer P3) was 250 ppm. The “active-substance concentration, 14 d, 40° C.” value ([1]; in Polymer P3) was 163 ppm, the “active-substance concentration, 28 d, 40° C.” value ([1]; in Polymer P3) was 121 ppm and the “active-substance concentration, 60 d 40° C.” value ([1]; in Polymer P3) was 96 ppm. The “active-substance concentration, 0 d, RT” value ([1]; in Polymer P4) was 250 ppm, the “active-substance concentration, 14 d, 40° C.” value ([1]; in Polymer P4) was 165 ppm and the “active-substance concentration, 28 d, 40° C.” value ([1]; in Polymer P4) was 114 ppm. For the same compound, the “active-substance concentration, 60 d 40° C.” value ([1]; in Polymer P4) was 90 ppm, the “active-substance concentration, 0 d, RT” value ([1]; in Polymer P5 (HP56)) was 250 ppm and the “active-substance concentration, 14 d, 40° C.” value ([1]; in Polymer P5 (HP56)) was 142 ppm. The “active-substance concentration, 28 d, 40° C.” value ([1]; in Polymer P5 (HP56)) was 89 ppm, the “active-substance concentration, 60 d 40° C.” value ([1]; in Polymer P5 (HP56)) was 72 ppm and the “active-substance concentration, 0 d, RT” value ([1]; in Polymer P6) was 250 ppm. The “active-substance concentration, 14 d, 40° C.” value ([1]; in Polymer P6) was 135 ppm, the “active-substance concentration, 28 d, 40° C.” value ([1]; in Polymer P6) was 88 ppm and the “active-substance concentration, 60 d 40° C.” value ([1]; in Polymer P6) was 68 ppm. The “active-substance concentration, 0 d, RT” value ([1]; in Polymer P7) was 250 ppm, the “active-substance concentration, 14 d, 40° C.” value ([1]; in Polymer P7) was 139 ppm and the “active-substance concentration, 28 d, 40° C.” value ([1]; in Polymer P7) was 92 ppm. For the same compound, the “active-substance concentration, 60 d 40° C.” value ([1]; in Polymer P7) was 73 ppm, the “active-substance concentration, 0 d, RT” value ([1]; in Polymer P8) was 250 ppm and the “active-substance concentration, 14 d, 40° C.” value ([1]; in Polymer P8) was 142 ppm. The “active-substance concentration, 28 d, 40° C.” value ([1]; in Polymer P8) was 89 ppm, the “active-substance concentration, 60 d 40° C.” value ([1]; in Polymer P8) was 72 ppm and the “active-substance concentration, 0 d, RT” value ([1]; in Polymer P9) was 250 ppm. For the same compound, the “active-substance concentration, 14 d, 40° C.” value ([1]; in Polymer P9) was 128 ppm, the “active-substance concentration, 28 d, 40° C.” value ([1]; in Polymer P9) was 76 ppm and the “active-substance concentration, 60 d 40° C.” value ([1]; in Polymer P9) was 62 ppm. The “Start sample measurement, yeast assess., 4th inoculation” value (“Start sample measurement” below) ([2]; Polymer P1) was “− (slight growth, max. 100 colonies)”, the “60 d 40° C., yeast assess., 4th inoculation” value ([2]; Polymer P1) was “+” and the “Start sample measurement” value ([2]; Polymer P2) was “− (slight growth, max. 100 colonies)”. For the same compound, the “60 d 40° C., yeast assess., 4th inoculation” value ([2]; Polymer P2) was “++”, the “Start sample measurement” value ([2]; Polymer P3) was 0 (moderate growth, max. 400 colonies) and the “60 d 40° C., yeast assess., 4th inoculation” value ([2]; Polymer P3) was “++”. For the same compound, the “Start sample measurement” value ([2]; Polymer P4) was 0 (moderate growth, max. 400 colonies), the “60 d 40° C., yeast assess., 4th inoculation” value ([2]; Polymer P4) was “++” and the “Start sample measurement” value ([2]; Polymer P5 (HP56)) was 0 (moderate growth, max. 400 colonies). The “60 d 40° C., yeast assess., 4th inoculation” value ([2]; Polymer P5 (HP56)) was “++”, the “Start sample measurement” value ([2]; Polymer P6) was 0 (moderate growth, max. 400 colonies) and the “60 d 40° C., yeast assess., 4th inoculation” value ([2]; Polymer P6) was “++”. For the same compound, the “Start sample measurement” value ([2]; Polymer P7) was 0 (moderate growth, max. 400 colonies), the “60 d 40° C., yeast assess., 4th inoculation” value ([2]; Polymer P7) was “++” and the “Start sample measurement” value ([2]; Polymer P8) was “− (slight growth, max. 100 colonies)”. For the same compound, the “60 d 40° C., yeast assess., 4th inoculation” value ([2]; Polymer P8) was “+”, the “Start sample measurement” value ([2]; Polymer P9) was “− (slight growth, max. 100 colonies)” and the “60 d 40° C., yeast assess., 4th inoculation” value ([2]; Polymer P9) was “++”. The “Physical stability, 60 d 40° C.*” value ([3]; Polymer P1 with stabilizer) was “−−”, the “Physical stability, 60 d 40° C.*” value ([3]; Polymer P2 with stabilizer) was “−−” and the “Physical stability, 60 d 40° C.*” value ([3]; Polymer P3 with stabilizer) was “−−”. The “Physical stability, 60 d 40° C.*” value ([3]; Polymer P4 with stabilizer) was “−−”, the “Physical stability, 60 d 40° C.*” value [3, 5] was “−−” and the “Physical stability, 60 d 40° C.*” value ([3]; Polymer P6 with stabilizer) was “−−”. The “Physical stability, 60 d 40° C.*” value ([3]; Polymer P7 with stabilizer) was “−−”, the “Physical stability, 60 d 40° C.*” value ([3]; Polymer P8 with stabilizer) was “−−” and the “Physical stability, 60 d 40° C.*” value ([3]; Polymer P9 with stabilizer) was “−−”. The “Iodine color number, 60 d 40° C.” value ([4]; Polymer P1 with stabilizer) was 5.9, the “Iodine color number, start” value ([4]; Polymer P1 with stabilizer) was 2.8 and the “Iodine color number, 60 d 40° C.” value ([4]; Polymer P2 with stabilizer) was 8.0. The “Iodine color number, start” value ([4]; Polymer P2 with stabilizer) was 3.0, the “Iodine color number, 60 d 40° C.” value ([4]; Polymer P3 with stabilizer) was 9.2 and the “Iodine color number, start” value ([4]; Polymer P3 with stabilizer) was 3.3. For the same compound, the “Iodine color number, 60 d 40° C.” value ([4]; Polymer P4 with stabilizer) was 9.7, the “Iodine color number, start” value ([4]; Polymer P4 with stabilizer) was 3.3 and the “Iodine color number, 60 d 40° C.” value [4, 5] was 9.7. For the same compound, the “Iodine color number, start” value [4, 5] was 3.4, the “Iodine color number, 60 d 40° C.” value ([4]; Polymer P6 with stabilizer) was 9.7 and the “Iodine color number, start” value ([4]; Polymer P6 with stabilizer) was 3.4. For the same compound, the “Iodine color number, 60 d 40° C.” value ([4]; Polymer P7 with stabilizer) was 9.7, the “Iodine color number, start” value ([4]; Polymer P7 with stabilizer) was 3.4 and the “Iodine color number, 60 d 40° C.” value ([4]; Polymer P8 with stabilizer) was 10.0. For the same compound, the “Iodine color number, start” value ([4]; Polymer P8 with stabilizer) was 3.3, the “Iodine color number, 60 d 40° C.” value ([4]; Polymer P9 with stabilizer) was 15.5 and the “Iodine color number, start” value ([4]; Polymer P9 with stabilizer) was 4.0.
